Results published in patent US8143374B2, “Polypeptide derivatives of parathyroid hormone (PTH)” (The General Hospital Corporation, priority 2006, dated 2012).
“Also recorded” adds a separate entry of the source. Like-named read-outs stand apart in the source and are kept apart here. Where a SMILES comes first, the peptide text is derived from it. Where no end group is shown, it is not given here. [ ]: non-standard residue; d: D form. Apa = (S)-2-amino-4[(2-amino)pyrimidinyl]methylalanine; Phe(4-guanidino) = N=C(N)Nc1ccc(C[C@H](N)C(=O)O)cc1; Orn = NCCC[C@H](N)C(=O)O

Target: T1, wild-type human PTHR (Homo sapiens, UniProt Q03431)
T1 construct: expressed in transfected cells
T1 sequence (Q03431 27-593): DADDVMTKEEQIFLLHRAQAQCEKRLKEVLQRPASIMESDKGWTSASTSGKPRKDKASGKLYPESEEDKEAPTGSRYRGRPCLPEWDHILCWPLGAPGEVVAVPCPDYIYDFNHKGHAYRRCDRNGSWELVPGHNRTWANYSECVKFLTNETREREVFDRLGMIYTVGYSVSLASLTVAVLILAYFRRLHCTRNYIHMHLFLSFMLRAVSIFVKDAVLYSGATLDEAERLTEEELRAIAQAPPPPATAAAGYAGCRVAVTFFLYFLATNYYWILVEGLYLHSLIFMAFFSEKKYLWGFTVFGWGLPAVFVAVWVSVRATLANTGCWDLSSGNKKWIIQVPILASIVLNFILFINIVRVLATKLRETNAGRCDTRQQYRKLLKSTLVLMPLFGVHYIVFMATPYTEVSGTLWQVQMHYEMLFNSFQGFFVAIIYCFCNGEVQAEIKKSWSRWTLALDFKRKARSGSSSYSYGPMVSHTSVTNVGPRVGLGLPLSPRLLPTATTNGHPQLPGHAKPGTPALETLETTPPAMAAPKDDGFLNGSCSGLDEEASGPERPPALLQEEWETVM
Test: Competition binding in intact HKRK-B7 cells with 125I-PTH(1-34) tracer
Details: for reduction (alteration) of apparent binding affinity for the intact PTHR relative to parent peptide / enhancement in apparent PTHR-binding affinity relative to parent peptide / detectable binding to the intact PTHR (in words): HKRK-B7 cells; for reduction (alteration) of apparent binding affinity for the intact PTHR relative to parent peptide: versus the respective parent peptide; for IC50: intact HKRK-B7 cells, read-out: PTHR-WT (HKRK-B7 cells) IC50; for enhancement in apparent PTHR-binding affinity relative to parent peptide: versus PTH(1-31)NH2
Procedure: Cell Culture—Cells were cultured at 37° C. in a humidified atmosphere containing 5% CO2 in Dulbecco's modified Eagle's medium (DMEM), supplemented with 10% fetal bovine serum (HyClone, Logan Utah), 100 units/ml penicillin G, and 100 ug/ml streptomycin penicillin G/streptomycin (Invitrogen Corp. Carlsbad, Calif.). For binding and cAMP studies performed with the intact PTHR, the HKRK-B7 and ROS 17/2.8 cell lines were used. HKRK-B7 cells are derived from the porcine kidney cell line LLC-PK1 and express, via stable DNA transfection, the wild-type human PTHR at an approximate surface density of 950,000 PTH-binding sites per cell. ROS 17/2.8 cells are rat osteosarcoma cells and express the endogenous PTHR at an approximate surface density of 80,000 PTH-binding sites per cell. The cells were plated and assayed in 24-well plates.
Receptor binding—Binding to the wild-type human PTHR in intact HKRK-B7 cells and ROS 17/2.8 cells was assessed using ^125I-PTH(1-34) as a tracer radioligand, as described (Shimizu, M., (2001) Endocrinology 142:3068-3074). In brief, the cells in 24-well plates (about 500,000 cells per well) were incubated in binding buffer containing radioligand (about 100,000 cpm per well) with or without unlabeled peptide ligand (3×10^−9 to 1×10^−5 M) for four hours at 15° C. The binding mixture was then removed by aspiration, the cells were rinsed three times with binding buffer, lysed in 1 M NaOH, and the entire lysate was counted for gamma-irradiation in a gamma counter. Binding to PTHR-delNt in COS-7 cell membranes was assessed in 96-well, vacuum filtration plates (Multiscreen-Durapore HV, […] membranes, Millipore Corp., Millford, Mass.) using ^125I-[Aib^1,3,M]PTH(1-15)NH2 as a tracer radioligand, as described (Dean, T., (2006) Mol Endocrinol 20:931-942). In brief, cell membranes (20 μg/well) were incubated in membrane binding buffer containing radioligand (30,000 cpm/well) with or without unlabeled peptide ligand (3×10^−9 to 1×10^−5 M) for 90 minutes at 21° C. The plates were then subject to rapid vacuum filtration, the filters were washed once with buffer, detached from the plate and counted for gamma-irradiation in a gamma counter. Non-specific binding was defined as the binding observed in the presence of 1×10^−6 M PTH(1-31)NH2 for HKRK-B7 and ROS 17/2.8 cells, and 1×10^−6 M [Aib^1,3,M]PTH(1-15)NH2 for PTHR-delNt. Specifically bound radioactivity was calculated as a percentage of the radioactivity specifically bound in the absence of competing ligand.
Data and statistical calculations—Data were processed for curve fitting and derivation of IC50 and EC50 values using least-squares, nonlinear regression analysis and the four parameter logistic equation: […], where y, ymin and ymax are the observed, minimum and maximum response values, respectively; x is ligand concentration, and n is the slope factor. In cases where incomplete inhibition of binding occurred: i.e. with certain PTH(1-31) analogs binding to PTHR-delNt, the curve fits and IC50 values were derived by extrapolating the data to the maximum inhibition attained by [Aib^1,3,M]PTH(1-15)NH2. Paired data sets were statistically compared using a two-tailed Student's t-test, assuming unequal variances for the two sets.

[1] = [Ala1,Arg19]hPTH(1-31)NH2 analogs, 125I-[Nle8,21,Tyr34]rPTH(1-34)NH2 tracer
[2] = hPTH(1-31)NH2 analogs, 125I-[Nle8,21,Tyr34]ratPTH(1-34)NH2 tracer

Molecule	reduction (alteration) of apparent binding affinity for the intact PTHR relative to parent peptide	IC50 [2]	detectable binding to the intact PTHR (in words)	also measured
AVSEIQLMHNLGKHLNSMERVEWLRKKLQDV-NH2 [Arg^19→Glu]	two- to five-fold reductions			IC50 [1]: 125 ± 29 nM
SVSEIQLMHNLGKHLNSMRRVAWLRKKLQDV-NH2 [Glu^19,22→Arg,Ala]		54 ± 13 nM		enhancement in apparent PTHR-binding affinity relative to parent peptide: did not lead to further improvements
Arg^20→Apa: hPTH(1-31)NH2 analog with Arg^20 replaced by (S)-2-amino-4[(2-amino)pyrimidinyl]methylalanine (Apa) (SVSEIQLMHNLGKHLNSME[Apa]VEWLRKKLQDV-NH2)		> 10000 nM	complete loss of detectable binding affinity	
SVSEIQLMHNLGKHLNSMARVEWLRKKLQDV-NH2 [Glu^19→Ala]		49 ± 11 nM		enhancement in apparent PTHR-binding affinity relative to parent peptide: ≦two-fold
SVSEIQLMHNLGKHLNSMERAEWLRKKLQDV-NH2 [Val^21→Ala]	three- to four-fold			
SVSEIQLMHNLGKHLNSMERVAWLRKKLQDV-NH2 [Glu^22→Ala]				enhancement in apparent PTHR-binding affinity relative to parent peptide: ≦two-fold
AVSEIQLMHNLGKHLNSMRRVEWERKKLQDV-NH2 [Leu^24→Glu]			abolished detectable binding	IC50 [1]: > 10000 nM
CC[C@H](C)[C@H](NC(=O)[C@H](CCC(=O)O)NC(=O)[C@H](CO)NC(=O)[C@@H](NC(=O)[C@@H](N)CO)C(C)C)C(=O)N[C@@H](CCC(N)=O)C(=O)N[C@@H](CC(C)C)C(=O)N[C@@H](CCSC)C(=O)N[C@@H](Cc1c[nH]cn1)C(=O)N[C@@H](CC(N)=O)C(=O)N[C@@H](CC(C)C)C(=O)NCC(=O)N[C@@H](CCCCN)C(=O)N[C@@H](Cc1c[nH]cn1)C(=O)N[C@@H](CC(C)C)C(=O)N[C@@H](CC(N)=O)C(=O)N[C@@H](CO)C(=O)N[C@@H](CCSC)C(=O)N[C@@H](CCC(=O)O)C(=O)N[C@@H](Cc1ccc(NC(=N)N)cc1)C(=O)N[C@H](C(=O)N[C@@H](CCC(=O)O)C(=O)N[C@@H](Cc1c[nH]c2ccccc12)C(=O)N[C@@H](CC(C)C)C(=O)N[C@@H](CCCNC(=N)N)C(=O)N[C@@H](CCCCN)C(=O)N[C@@H](CCCCN)C(=O)N[C@@H](CC(C)C)C(=O)N[C@@H](CCC(N)=O)C(=O)N[C@@H](CC(=O)O)C(=O)N[C@H](C(N)=O)C(C)C)C(C)C [Arg^20→Gph] (H-SVSEIQLMHNLGKHLNSME[Phe(4-guanidino)]VEWLRKKLQDV-NH2; N-terminus assumed)		> 10000 nM	complete loss of detectable binding affinity	
SVSEIQLMHNLGKHLNSMEQVEWLRKKLQDV-NH2 [Arg^20→Gln]		> 10000 nM	complete loss of detectable binding affinity	
SVSEIQLMHNLGKHLNSMERVEWLAKKLQDV-NH2 [Arg^25→Ala]	three- to four-fold			
SVSEIQLMHNLGKHLNSMEAVEWLRKKLQDV-NH2 [Arg^20→Ala]		> 10000 nM	abolished detectable binding altogether; also recorded: abolished binding to the PTHR	
AVSEIQLMHNLGKHLNSMRRVEWLRKELQDV-NH2 [Lys^27→Glu]	two- to five-fold reductions			
SVSEIQLMHNLGKHLNSMARVAWLRKKLQDV-NH2 [Glu^19,22→Ala,Ala]		49 ± 9 nM		enhancement in apparent PTHR-binding affinity relative to parent peptide: did not lead to further improvements
SVSEIQLMHNLGKHLNSMERVEWLRKKLQDA-NH2 [Val^31→Ala]	three- to four-fold			
SVSEIQLMHNLGKHLNSMERVEWLRKALQDV-NH2 [Lys^27→Ala]	three- to four-fold			
SVSEIQLMHNLGKHLNSMERVEWLRAKLQDV-NH2 [Lys^26→Ala]		125 ± 8 nM		
SVSEIQLMHNLGKHLNSMERVEWLRKKLADV-NH2 [Gln^29→Ala]				enhancement in apparent PTHR-binding affinity relative to parent peptide: ≦two-fold
AVSEIQLMHNLGKHLNSMRREEWLRKKLQDV-NH2 [Val^21→Glu]	12 fold			
CC[C@H](C)[C@H](NC(=O)[C@H](CCC(=O)O)NC(=O)[C@H](CO)NC(=O)[C@@H](NC(=O)[C@@H](N)CO)C(C)C)C(=O)N[C@@H](CCC(N)=O)C(=O)N[C@@H](CC(C)C)C(=O)N[C@@H](CCSC)C(=O)N[C@@H](Cc1c[nH]cn1)C(=O)N[C@@H](CC(N)=O)C(=O)N[C@@H](CC(C)C)C(=O)NCC(=O)N[C@@H](CCCCN)C(=O)N[C@@H](Cc1c[nH]cn1)C(=O)N[C@@H](CC(C)C)C(=O)N[C@@H](CC(N)=O)C(=O)N[C@@H](CO)C(=O)N[C@@H](CCSC)C(=O)N[C@@H](CCC(=O)O)C(=O)N[C@@H](CCCN)C(=O)N[C@H](C(=O)N[C@@H](CCC(=O)O)C(=O)N[C@@H](Cc1c[nH]c2ccccc12)C(=O)N[C@@H](CC(C)C)C(=O)N[C@@H](CCCNC(=N)N)C(=O)N[C@@H](CCCCN)C(=O)N[C@@H](CCCCN)C(=O)N[C@@H](CC(C)C)C(=O)N[C@@H](CCC(N)=O)C(=O)N[C@@H](CC(=O)O)C(=O)N[C@H](C(N)=O)C(C)C)C(C)C [Arg^20→Orn] (H-SVSEIQLMHNLGKHLNSME[Orn]VEWLRKKLQDV-NH2; N-terminus assumed)		> 10000 nM		
SVSEIQLMHNLGKHLNSMEKVEWLRKKLQDV-NH2 [Arg^20→Lys]		> 10000 nM	complete loss of detectable binding affinity	
